Like-named read-outs stand apart in the source and are kept apart here.
Target: hTRPV3 (Homo sapiens (Human), UniProt Q8NET8)
Assay: Whole-cell patch clamp, hTRPV3 Phase 1 / Phase 2 currents
Format: cell-based
Summary of the method: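 Whole-cell recordings on induced TRPV3 cells replated on coverslips, held at −40 mV with 400 ms ramps from −120 to +100 mV every 5 s; currents read at −80 and +80 mV. Ringer's external solution; current activated by heating to ≥28 °C or 20 μM 2-APB.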

[1] = Phase 1 current, inward, whole-cell patch clamp, read-out: hTRPV3 Patch P1 Inwd
[2] = Phase 1 current, read-out: hTRPV3 (nM) (Phase 1)
[3] = Phase 2 current, inward, whole-cell patch clamp, read-out: hTRPV3 Patch P2 Inwd
[4] = Phase 2 current, read-out: hTRPV3 (nM) (Phase 2)
[5] = Phase 1 current, human TRPV3, read-out: hTRPV3 (nM) Phase 1

hTRPV3, sequence (Q8NET8 whole entry): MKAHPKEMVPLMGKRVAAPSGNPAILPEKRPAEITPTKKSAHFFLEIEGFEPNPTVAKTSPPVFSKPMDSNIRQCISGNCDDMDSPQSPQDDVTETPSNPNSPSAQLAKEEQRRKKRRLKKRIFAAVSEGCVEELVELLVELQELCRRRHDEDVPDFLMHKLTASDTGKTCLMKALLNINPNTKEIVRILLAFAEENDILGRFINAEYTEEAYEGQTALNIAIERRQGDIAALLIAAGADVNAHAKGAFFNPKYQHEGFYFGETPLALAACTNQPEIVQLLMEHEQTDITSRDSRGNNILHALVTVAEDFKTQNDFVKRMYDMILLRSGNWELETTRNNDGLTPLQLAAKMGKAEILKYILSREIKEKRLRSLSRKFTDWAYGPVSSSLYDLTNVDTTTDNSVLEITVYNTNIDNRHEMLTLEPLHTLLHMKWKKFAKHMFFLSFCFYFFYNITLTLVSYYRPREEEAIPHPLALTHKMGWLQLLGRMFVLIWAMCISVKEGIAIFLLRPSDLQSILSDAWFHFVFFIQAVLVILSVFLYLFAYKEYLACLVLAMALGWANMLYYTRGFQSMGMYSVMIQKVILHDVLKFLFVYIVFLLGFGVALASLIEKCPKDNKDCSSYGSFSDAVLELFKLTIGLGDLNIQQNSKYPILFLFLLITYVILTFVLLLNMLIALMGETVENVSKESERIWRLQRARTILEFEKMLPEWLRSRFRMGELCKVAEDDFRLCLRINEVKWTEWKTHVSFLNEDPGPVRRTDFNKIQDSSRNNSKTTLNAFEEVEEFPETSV

SMILES	IC50 [1]	IC50 [2]	IC50 [3]	IC50 [4]	IC50 [5]
NC(=O)c1cc(-c2ccccc2)cnc1N1CC[C@@H](Nc2ccc(C(F)(F)F)cn2)C1 [Compound 1-378, (R)-5-phenyl-2-(3-(5-(trifluoromethyl)pyridin-2-ylamino)pyrrolidin-1-yl)nicotinamide]	> 1000 nM	> 3200 nM	> 1000 nM	> 3200 nM	
Cc1ccccc1-c1ccc(N2CC[C@H](Nc3ccc(C(F)(F)F)cn3)C2)c(CO)n1 [Compound 1-379, (S)-(6-o-tolyl-3-(3-(5-(trifluoromethyl)pyridin-2-ylamino)pyrrolidin-1-yl)pyridin-2-yl)methanol]	> 1000 nM	> 3200 nM	> 1000 nM	> 3200 nM	
CCc1ccccc1C(=O)c1ccc(N2CC[C@H](Nc3ncccc3Cl)C2)c(CO)c1 [Compound 1-384, (S)-(4-(3-(3-chloropyridin-2-ylamino)pyrrolidin-1-yl)-3-(hydroxymethyl)phenyl)(2-ethylphenyl)methanone]	100 to 1000 nM	495 nM			
CCc1ccccc1C(O)c1ccc(N2CC[C@H](Nc3ncccc3Cl)C2)c(CCO)c1 (stereo partly drawn) [Compound 1-385, 2-(2-((S)-3-(3-chloropyridin-2-ylamino)pyrrolidin-1-yl)-5-((2-ethylphenyl)(hydroxy)methyl)phenyl)ethanol]	> 1000 nM	> 3200 nM			
CCc1ccccc1C(O)c1ccc(N2CC[C@H](Nc3ncccc3Cl)C2)c(CO)c1 (stereo partly drawn) [Compound 1-386, (4-((S)-3-(3-chloropyridin-2-ylamino)pyrrolidin-1-yl)-3-(hydroxymethyl)phenyl)(2-ethylphenyl)methanol]	> 1000 nM	~1260 nM	> 1000 nM	~2150 nM	
CCc1ccccc1C(=O)c1ccc(N2CC[C@H](Nc3ncccc3Cl)C2)c(CCO)c1 [Compound 1-387, (S)-(4-(3-(3-chloropyridin-2-ylamino)pyrrolidin-1-yl)-3-(2-hydroxyethyl)phenyl)(2-ethylphenyl)methanone]	> 1000 nM	1630 nM			
O=C(c1ccc(Cl)cc1)c1ccc(N2CC[C@H](Nc3ccc(F)cn3)C2)c(CCO)c1 [Compound 1-388, (S)-(4-chlorophenyl)(4-(3-(5-fluoropyridin-2-ylamino)pyrrolidin-1-yl)-3-(2-hydroxyethyl)phenyl)methanone]	> 1000 nM	> 3200 nM			
O=C(c1ccc(N2CC[C@H](Nc3ccc(F)cn3)C2)c(CCO)c1)c1ccccc1Cl [Compound 1-389, (S)-(2-chlorophenyl)(4-(3-(5-fluoropyridin-2-ylamino)pyrrolidin-1-yl)-3-(2-hydroxyethyl)phenyl)methanone]	> 1000 nM	> 3200 nM			
OCCc1cc(C(O)c2ccc(Cl)cc2)ccc1N1CC[C@H](Nc2ccc(F)cn2)C1 (stereo partly drawn) [Compound 1-391, 2-(5-((4-chlorophenyl)(hydroxy)methyl)-2-((S)-3-(5-fluoropyridin-2-ylamino)pyrrolidin-1-yl)phenyl)ethanol]	> 1000 nM	> 3200 nM			
OCCc1cc(C(O)c2cccc(Cl)c2)ccc1N1CC[C@H](Nc2ccc(F)cn2)C1 (stereo partly drawn) [Compound 1-392, 2-(5-((3-chlorophenyl)(hydroxy)methyl)-2-((S)-3-(5-fluoropyridin-2-ylamino)pyrrolidin-1-yl)phenyl)ethanol]	> 1000 nM	> 3200 nM			
O=C(c1cccc(Cl)c1)c1ccc(N2CC[C@H](Nc3ccc(F)cn3)C2)c(CCO)c1 [Compound 1-393, (S)-(3-chlorophenyl)(4-(3-(5-fluoropyridin-2-ylamino)pyrrolidin-1-yl)-3-(2-hydroxyethyl)phenyl)methanone]	> 1000 nM	~2950 nM	> 1000 nM	> 3200 nM	
OCc1nc(-c2ccccc2)ccc1N1CC[C@H](Oc2nc(C(F)(F)F)cs2)C1 [Compound 1-396, (S)-(6-phenyl-3-(3-(4-(trifluoromethyl)thiazol-2-yloxy)pyrrolidin-1-yl)pyridin-2-yl)methanol]	> 1000 nM	1130 nM	> 1000 nM	2900 nM	
OCc1cc(-c2ccccc2)ccc1N1CC[C@H](Oc2ccc(C(F)(F)F)nn2)C1 [Compound 1-397, (S)-(4-(3-(6-(trifluoromethyl)pyridazin-3-yloxy)pyrrolidin-1-yl)biphenyl-3-yl)methanol]	> 1000 nM	2740 nM	> 1000 nM	1370 nM	
Cc1cccnc1CO[C@H]1CCN(c2ccc(-c3ccccc3)cc2CO)C1 [Compound 1-399]		> 3200 nM		481 nM	
Cc1cccc(C(O)c2ccc(C3CCN(C(=O)c4ncccc4Cl)C3)c(CO)c2)c1 (centres unmarked) [Compound 2-2, (3-chloropyridin-2-yl)(3-(4-(hydroxy(m-tolyl)methyl)-2-(hydroxymethyl)phenyl)pyrrolidin-1-yl)methanone]	100 to 1000 nM				
O=C(c1ncccc1Cl)N1CCC(c2ccc(C(O)c3ccc(F)cc3)cc2CO)C1 (centres unmarked) [Compound 2-4, (3-chloropyridin-2-yl)(3-(4-((4-fluorophenyl)(hydroxy)methyl)-2-(hydroxymethyl)phenyl)pyrrolidin-1-yl)methanone]	> 1000 nM				> 3200 nM
O=C(c1ncccc1Cl)N1CCC(c2ccc(C(O)c3ccccc3F)cc2CO)C1 (centres unmarked) [Compound 2-5, (3-chloropyridin-2-yl)(3-(4-((2-fluorophenyl)(hydroxy)methyl)-2-(hydroxymethyl)phenyl)pyrrolidin-1-yl)methanone]	> 1000 nM				> 3200 nM
Cc1ccc(C(O)c2ccc(C3CCN(C(=O)c4ncccc4Cl)C3)c(CO)c2)cc1 (centres unmarked) [Compound 2-6, (3-chloropyridin-2-yl)(3-(4-(hydroxy(p-tolyl)methyl)-2-(hydroxymethyl)phenyl)pyrrolidin-1-yl)methanone]	> 1000 nM				> 3200 nM
Cc1ccc(C(=O)c2ccc(C3CCN(C(=O)c4ncccc4Cl)C3)c(CO)c2)cc1 (centres unmarked) [Compound 2-7]	> 1000 nM				> 3200 nM
Cc1cccc(C(=O)c2ccc(C3CCN(C(=O)c4ncccc4Cl)C3)c(CO)c2)c1 (centres unmarked) [Compound 2-9, (4-(1-(3-chloropicolinoyl)pyrrolidin-3-yl)-3-(hydroxymethyl)phenyl)(m-tolyl)methanone]	> 1000 nM				> 3200 nM
O=C(c1ccc(F)cc1)c1ccc(C2CCN(C(=O)c3ncccc3Cl)C2)c(CO)c1 (centres unmarked) [Compound 2-10, (4-(1-(3-chloropicolinoyl)pyrrolidin-3-yl)-3-(hydroxymethyl)phenyl)(4-fluorophenyl)methanone]	> 1000 nM				> 3200 nM
O=C(c1ncccc1Cl)N1CCC(c2ccc(C(O)c3ccccc3Cl)cc2CO)C1 (centres unmarked) [Compound 2-11, (3-(4-((2-chlorophenyl)(hydroxy)methyl)-2-(hydroxymethyl)phenyl)pyrrolidin-1-yl)(3-chloropyridin-2-yl)methanone]	> 1000 nM				> 3200 nM
CC(C)c1ccccc1Oc1ccc(C2CCN(C(=O)c3ccccn3)C2)c(CO)c1 (centres unmarked) [Compound 2-13, (3-(2-(hydroxymethyl)-4-(2-isopropylphenoxy)phenyl)pyrrolidin-1-yl)(pyridin-2-yl)methanone]	100 to 1000 nM				193 nM
O=C(c1ccc(C2CCN(C(=O)c3ncccc3Cl)C2)c(CO)c1)c1ccccc1Cl (centres unmarked) [Compound 2-14, (3-(4-(2-chlorobenzoyl)-2-(hydroxymethyl)phenyl)pyrrolidin-1-yl)(3-chloropyridin-2-yl)methanone]	> 1000 nM				> 3200 nM
